{"source": "paper PMC11270687", "about": "(ACS Omega, 2024)", "tested_on": "PD3", "assay_type": "biochemical, Brucella anthropi"}
{"smiles": "CCCC(=O)Oc1ccc([N+](=O)[O-])cc1", "note": "[p-nitrophenyl butyrate]", "values": [{"measurement": "Km", "result": 7.82, "unit": "mM"}]}
